Results from the OPERA property sets (Mansouri et al. 2018).
Converted amounts (≈) assume the structure as drawn.

Structure (SMILES): O=S(=O)(O)OCCOc1ccc(Cl)cc1Cl
- solubility: 871000 µM (≈ 250000 µg/mL)

Structure (SMILES): Cc1cc(Cl)ccc1NC(=S)N(C)C
- solubility (20 °C): 219 µM (≈ 50 µg/mL)

Structure (SMILES): CCOC(=O)C(C)Oc1ccc(Oc2nc3ccc(Cl)cc3o2)cc1 (stereo not given)
- solubility (25 °C): 2.59 µM (≈ 0.937 µg/mL)

Structure (SMILES): CCN(C(=O)Oc1cccc(NC(=O)OC(C)C)c1)c1ccccc1
- solubility (25 °C): 8.76 µM (≈ 3 µg/mL)

Structure (SMILES): Clc1ccc(Sc2cc(Cl)c(Cl)cc2Cl)cc1
- solubility (20 °C): 0.0926 µM (≈ 0.03 µg/mL)

Structure (SMILES): CC(=O)OC[C@H]([C@H](OC(C)=O)c1ccccc1)[N+](=O)[O-]
- solubility (20 °C): 107 µM (≈ 30 µg/mL)

Structure (SMILES): CCS(=O)(=O)c1nnc(N(C)C(=O)NC)s1
- solubility (20 °C): 11400 µM (≈ 3000 µg/mL)

Structure (SMILES): CON(C(=O)c1cc(C)oc1C)C1CCCCC1
- solubility (20 °C): 1.19 µM (≈ 0.3 µg/mL)

Structure (SMILES): O=C1OCCC1N(C(=O)C1CC1)c1cccc(Cl)c1 (stereo not given)
- solubility (25 °C): 2050 µM (≈ 574 µg/mL)

Structure (SMILES): CCOC(=O)CNc1nc(Cl)nc(NC(C)C)n1
- solubility (25 °C): 2740 µM (≈ 750 µg/mL)
